pIC50: −log10 of the molar value.
What was measured:
[1] = target: T1, Recombinant wild type LRRK2 protein (Homo sapiens, UniProt Q5S007); assay: LRRK2 kinase activity assay (LanthaScreen TR-FRET), wild type; type: biochemical; details: 400 nM LRRKtide, 25 μM ATP, 60 min at room temperature; read-out: LRRK2 WT IC50
T1 construct: purchased Life Technologies PR8604B
Method: (§1) LRRK2 kinase activity was measured using a LanthaScreen™ Kinase Activity Assay from ThermoFisher Scientific. Recombinant wild type or G2019S-LRRK2 protein (Life Technologies, PR8604B or PV4881, respectively), was incubated with a fluorescein-labeled peptide substrate called LRRKtide that is based upon ezrin/radixin/moesin (ERM) (Life Technologies, PV4901) in the presence of ATP and serially diluted compound. After an incubation period of 1 hr, the phosphotransferase activity was stopped and a terbium-labelled anti-pERM antibody (Life Technologies, PV4899) was added to detect the phosphorylation of LRRKtide by measuring the time resolved-Forster resonant energy transfer (TR-FRET) signal from the terbium label on the antibody to the fluorescein tag on LRRKtide, expressed as the 520 nm/495 nm emission ratio. Compound-dependent inhibition of the TR-FRET signal was used to generate a concentration-response curve for IC50 determination.
(§2) The assay was carried out under the following protocol conditions: 1 mM compound in DMSO was serially diluted 1:3, 11 points in DMSO with a Biomek FX and 0.1 μL of the diluted compound was subsequently stamped into the assay plate (384-well format Lumitrac 200, Greiner, 781075) with an Echo Labcyte such that the final compound concentration in the assay was 10 μM to […]. Subsequently, 5 μL of 2× kinase solution (2.9 nM final concentration) was added to the assay plate in assay buffer composed of 50 mM Tris pH 8.5 (Sigma, T6791), 5 mM MgCl2 (Fluka, 63020), 1 mM EGTA (Sigma, E3889), 0.01% BRU-35 (Sigma, P1254) and 2 mM DTT. The reaction was started by addition of 2×ATP/LRRKtide solution in assay buffer such that the final concentration was 400 nM LRRKtide and 25 μM ATP. After 60 min incubation at room temperature, the reaction was stopped by addition of […] containing a final concentration of 2 nM anti-pERM antibody and […]. After a 30 min incubation at RT, the TR-FRET signal was measured on a Wallac 2104 EnVision® multilabel reader at an excitation wavelength of 340 nm and reading emission at 520 nm and 495 nm. The ratio of the 520 nm and 495 nm emission was used to analyze the data.

[2] = target: T2, Recombinant G2019S-LRRK2 protein (Homo sapiens, UniProt Q5S007, G2019S); assay: LRRK2 kinase activity assay (LanthaScreen TR-FRET), G2019S mutant; type: biochemical; details: 400 nM LRRKtide, 25 μM ATP, 60 min at room temperature
T2 construct: purchased Life Technologies PV4881
T2 sequence (Q5S007 970-2527 G2019S limits assumed): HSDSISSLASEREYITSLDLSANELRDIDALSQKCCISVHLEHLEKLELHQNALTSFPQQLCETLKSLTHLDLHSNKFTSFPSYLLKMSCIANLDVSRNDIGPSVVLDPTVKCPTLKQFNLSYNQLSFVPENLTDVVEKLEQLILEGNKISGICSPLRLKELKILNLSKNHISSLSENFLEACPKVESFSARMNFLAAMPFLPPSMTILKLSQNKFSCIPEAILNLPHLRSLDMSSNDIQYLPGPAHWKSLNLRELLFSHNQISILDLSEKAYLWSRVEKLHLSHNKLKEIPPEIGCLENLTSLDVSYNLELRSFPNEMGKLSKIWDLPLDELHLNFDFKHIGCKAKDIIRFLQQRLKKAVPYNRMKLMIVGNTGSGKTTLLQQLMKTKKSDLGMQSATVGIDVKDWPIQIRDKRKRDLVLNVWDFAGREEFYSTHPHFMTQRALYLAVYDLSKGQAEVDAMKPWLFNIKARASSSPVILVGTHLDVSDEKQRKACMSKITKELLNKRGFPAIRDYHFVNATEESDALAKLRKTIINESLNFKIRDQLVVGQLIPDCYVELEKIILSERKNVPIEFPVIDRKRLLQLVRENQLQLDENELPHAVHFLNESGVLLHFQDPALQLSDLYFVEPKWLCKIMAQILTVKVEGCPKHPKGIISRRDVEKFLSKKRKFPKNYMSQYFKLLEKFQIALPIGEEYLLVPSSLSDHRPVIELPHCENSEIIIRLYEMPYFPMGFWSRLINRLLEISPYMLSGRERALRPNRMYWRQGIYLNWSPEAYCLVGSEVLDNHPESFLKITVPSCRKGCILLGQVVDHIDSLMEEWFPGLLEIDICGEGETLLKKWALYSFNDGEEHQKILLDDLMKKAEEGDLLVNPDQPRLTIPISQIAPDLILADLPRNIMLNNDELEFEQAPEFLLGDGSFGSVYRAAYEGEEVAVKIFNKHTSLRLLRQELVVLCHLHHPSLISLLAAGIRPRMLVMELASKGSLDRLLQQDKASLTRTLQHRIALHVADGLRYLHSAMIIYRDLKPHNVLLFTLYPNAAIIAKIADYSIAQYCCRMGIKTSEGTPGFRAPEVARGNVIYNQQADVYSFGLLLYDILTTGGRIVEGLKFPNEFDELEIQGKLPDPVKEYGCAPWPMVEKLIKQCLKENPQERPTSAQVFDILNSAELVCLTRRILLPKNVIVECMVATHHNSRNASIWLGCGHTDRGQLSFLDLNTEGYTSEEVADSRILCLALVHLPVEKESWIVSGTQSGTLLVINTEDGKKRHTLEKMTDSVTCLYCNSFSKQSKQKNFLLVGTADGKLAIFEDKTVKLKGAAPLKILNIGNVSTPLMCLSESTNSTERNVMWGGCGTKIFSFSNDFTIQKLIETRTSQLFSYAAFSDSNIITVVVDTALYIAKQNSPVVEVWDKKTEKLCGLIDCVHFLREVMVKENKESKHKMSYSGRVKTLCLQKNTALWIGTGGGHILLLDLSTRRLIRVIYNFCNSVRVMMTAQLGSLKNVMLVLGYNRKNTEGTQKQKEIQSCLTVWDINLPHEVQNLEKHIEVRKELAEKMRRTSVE
Method: as §1, §2

T1 sequence (Q5S007 whole entry): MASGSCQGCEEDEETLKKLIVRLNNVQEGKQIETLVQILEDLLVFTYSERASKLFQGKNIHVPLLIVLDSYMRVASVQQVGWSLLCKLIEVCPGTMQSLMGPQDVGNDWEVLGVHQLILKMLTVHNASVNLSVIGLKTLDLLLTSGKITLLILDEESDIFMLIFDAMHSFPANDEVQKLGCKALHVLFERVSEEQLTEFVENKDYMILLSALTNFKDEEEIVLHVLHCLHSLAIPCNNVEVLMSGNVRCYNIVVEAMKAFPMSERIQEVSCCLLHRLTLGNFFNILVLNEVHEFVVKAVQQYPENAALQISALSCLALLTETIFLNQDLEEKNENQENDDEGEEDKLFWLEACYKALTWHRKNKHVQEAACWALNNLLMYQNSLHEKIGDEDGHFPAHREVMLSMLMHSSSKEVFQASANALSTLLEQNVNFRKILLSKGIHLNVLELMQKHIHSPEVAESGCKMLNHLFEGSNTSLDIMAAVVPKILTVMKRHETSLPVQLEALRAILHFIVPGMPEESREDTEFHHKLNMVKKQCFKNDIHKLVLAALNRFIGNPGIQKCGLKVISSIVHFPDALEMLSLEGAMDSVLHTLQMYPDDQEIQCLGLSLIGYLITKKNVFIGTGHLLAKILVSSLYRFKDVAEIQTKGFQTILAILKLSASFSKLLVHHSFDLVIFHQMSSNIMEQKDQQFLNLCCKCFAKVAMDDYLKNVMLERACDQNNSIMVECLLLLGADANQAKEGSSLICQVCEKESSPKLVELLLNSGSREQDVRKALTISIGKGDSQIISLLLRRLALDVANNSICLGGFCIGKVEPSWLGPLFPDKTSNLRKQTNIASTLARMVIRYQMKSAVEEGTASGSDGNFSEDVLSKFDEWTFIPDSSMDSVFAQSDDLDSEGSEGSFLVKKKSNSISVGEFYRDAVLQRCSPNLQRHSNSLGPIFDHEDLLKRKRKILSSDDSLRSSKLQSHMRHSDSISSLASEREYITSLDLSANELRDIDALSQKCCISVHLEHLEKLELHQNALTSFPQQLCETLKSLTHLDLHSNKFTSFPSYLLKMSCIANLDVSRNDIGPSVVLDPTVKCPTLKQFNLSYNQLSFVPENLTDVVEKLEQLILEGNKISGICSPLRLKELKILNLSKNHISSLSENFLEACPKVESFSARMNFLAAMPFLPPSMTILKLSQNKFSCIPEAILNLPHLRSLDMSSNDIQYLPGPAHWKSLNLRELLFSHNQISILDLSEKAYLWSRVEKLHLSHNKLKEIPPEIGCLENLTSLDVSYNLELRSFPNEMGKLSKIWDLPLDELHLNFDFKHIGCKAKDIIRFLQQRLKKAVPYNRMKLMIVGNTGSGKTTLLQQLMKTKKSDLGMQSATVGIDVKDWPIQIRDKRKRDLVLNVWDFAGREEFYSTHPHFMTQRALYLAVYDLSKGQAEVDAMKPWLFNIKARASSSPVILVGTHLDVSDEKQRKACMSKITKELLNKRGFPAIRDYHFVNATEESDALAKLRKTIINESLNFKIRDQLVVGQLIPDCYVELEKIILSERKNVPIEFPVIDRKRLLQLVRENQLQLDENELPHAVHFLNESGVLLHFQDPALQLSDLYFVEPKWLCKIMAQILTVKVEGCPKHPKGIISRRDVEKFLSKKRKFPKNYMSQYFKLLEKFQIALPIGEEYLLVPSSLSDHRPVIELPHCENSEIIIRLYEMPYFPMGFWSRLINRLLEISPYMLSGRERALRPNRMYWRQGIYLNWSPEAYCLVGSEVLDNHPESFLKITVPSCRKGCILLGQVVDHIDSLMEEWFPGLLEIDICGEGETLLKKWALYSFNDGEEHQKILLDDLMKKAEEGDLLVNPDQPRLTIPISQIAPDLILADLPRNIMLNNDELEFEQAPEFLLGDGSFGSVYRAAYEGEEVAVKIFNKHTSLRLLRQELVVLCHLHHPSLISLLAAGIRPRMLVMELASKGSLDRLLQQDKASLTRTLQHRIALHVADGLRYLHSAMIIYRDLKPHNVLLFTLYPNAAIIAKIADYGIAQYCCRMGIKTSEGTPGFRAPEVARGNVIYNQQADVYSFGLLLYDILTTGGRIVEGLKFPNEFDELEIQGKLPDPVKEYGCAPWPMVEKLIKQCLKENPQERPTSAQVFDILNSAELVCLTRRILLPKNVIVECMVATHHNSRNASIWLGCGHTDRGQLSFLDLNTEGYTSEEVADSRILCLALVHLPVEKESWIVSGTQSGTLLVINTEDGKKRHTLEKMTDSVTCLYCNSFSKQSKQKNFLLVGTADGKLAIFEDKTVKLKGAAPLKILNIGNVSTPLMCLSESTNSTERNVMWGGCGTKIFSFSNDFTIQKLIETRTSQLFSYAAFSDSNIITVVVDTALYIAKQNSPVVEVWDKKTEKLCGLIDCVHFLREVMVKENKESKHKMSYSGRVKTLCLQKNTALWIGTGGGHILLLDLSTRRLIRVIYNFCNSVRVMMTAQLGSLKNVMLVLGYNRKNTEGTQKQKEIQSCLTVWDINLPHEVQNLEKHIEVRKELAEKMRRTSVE

In the case of CC1=C(C(=O)Nc2ccc3[nH]ncc3c2)C(C)(C)n2nnnc2N1C [Example 26, N-(2H-indazol-5-yl)-4,5,7,7-tetramethyl-4,7-dihydrotetrazolo[1,5-a]pyrimidine-6-carboxamide], the pIC50 [1] was 5.00 to 6.00 and the pIC50 [2] was at least 7.00.
In the case of CC1=C(C(=O)Nc2ccc3[nH]nc(-c4ccncc4)c3c2)[C@@H](C)n2nnnc2N1C [Example 27, (R)-4,5,7-trimethyl-N-(3-(pyridin-4-yl)-1H-indazol-5-yl)-4,7-dihydrotetrazolo[1,5-a]pyrimidine-6-carboxamide], the pIC50 [1] was at least 7.00 and the pIC50 [2] was at least 7.00.
CC(=O)Nc1[nH]nc2ccc(NC(=O)C3=C(C)N(C)c4nnnn4C3)cc12 [Example 28, N-(3-acetamido-2H-indazol-5-yl)-4,5-dimethyl-4,7-dihydrotetrazolo[1,5-a]pyrimidine-6-carboxamide] gave a pIC50 [1] of under 5.00 and a pIC50 [2] of 5.00 to 6.00.
CC1=C(C(=O)Nc2ccc3[nH]c(=O)oc3c2)Cn2nnnc2N1C [Example 30, 4,5-dimethyl-N-(2-oxo-2,3-dihydrobenzo[d]oxazol-6-yl)-4,7-dihydrotetrazolo[1,5-a]pyrimidine-6-carboxamide] was tested, and the pIC50 [1] was under 5.00 and the pIC50 [2] was 5.00 to 6.00.
Work on CC1=C(C(=O)Nc2ccc3[nH]c(=O)[nH]c3c2)Cn2nnnc2N1C [Example 31, 4,5-dimethyl-N-(2-oxo-2,3-dihydro-1H-benzo[d]imidazol-5-yl)-4,7-dihydrotetrazolo[1,5-a]pyrimidine-6-carboxamide] yielded a pIC50 [1] of 5.00 to 6.00 and a pIC50 [2] of 6.00 to 7.00.
CC1=C(C(=O)Nc2ccc3c(N)nccc3c2)[C@@H](C)n2nnnc2N1C [Example 42, (R)—N-(1-Aminoisoquinolin-6-yl)-4,5,7-trimethyl-4,7-dihydrotetrazolo[1,5-a]pyrimidine-6-carboxamide] was tested, and the pIC50 [1] was 6.00 to 7.00 and the pIC50 [2] was at least 7.00.
CC1=C(C(=O)Nc2ccc3[nH]c(=O)n(C)c3c2)[C@@H](C)n2nnnc2N1C [Example 47, (R)-4,5,7-Trimethyl-N-(3-methyl-2-oxo-2,3-dihydro-1H-benzo[d]imidazol-5-yl)-4,7-dihydrotetrazolo[1,5-a]pyrimidine-6-carboxamide] showed a pIC50 [1] of 5.00 to 6.00 and a pIC50 [2] of at least 7.00.
CC1=C(C(=O)Nc2ccc3c(c2)C(C)(C)NC3=O)[C@@H](C)n2nnnc2N1C [Example 49, (R)—N-(3,3-Dimethyl-1-oxoisoindolin-5-yl)-4,5,7-trimethyl-4,7-dihydrotetrazolo[1,5-a]pyrimidine-6-carboxamide] was tested, and the pIC50 [1] was under 5.00 and the pIC50 [2] was under 5.00.
With CC1=C(C(=O)Nc2ccc3n[nH]c(NC(=O)Cc4ccc(N(C)C)cc4)c3c2)Cn2nnnc2N1C [Example 52, N-(3-(2-(4-(Dimethylamino)phenyl)acetamido)-2H-indazol-5-yl)-4,5-dimethyl-4,7-dihydrotetrazolo[1,5-a]pyrimidine-6-carboxamide] the pIC50 [1] was 5.00 to 6.00 and the pIC50 [2] was 6.00 to 7.00.
Compound CC1=C(C(=O)Nc2ccc3[nH]nc(C)c3c2)C(C)(C)n2nnnc2N1C [Example 60, 4,5,7,7-Tetramethyl-N-(3-methyl-2H-indazol-5-yl)-4,7-dihydrotetrazolo[1,5-a]pyrimidine-6-carboxamide] has a pIC50 [1] of 6.00 to 7.00 and a pIC50 [2] of at least 7.00.
With COC(=O)c1c(NC(=O)C2=C(C)N(C)c3nnnn3C2)ccc2n[nH]cc12 [Example 61, Methyl 5-(4,5-dimethyl-4,7-dihydrotetrazolo[1,5-a]pyrimidine-6-carboxamido)-2H-indazole-4-carboxylate] the pIC50 [1] was under 5.00 and the pIC50 [2] was under 5.00.

From patent US20210261553A1, “FUSED TETRAZOLES AS LRRK2 INHIBITORS” (E-SCAPE Bio, Inc., priority 2018, published 2021)
